Measurements: ChEMBL document CHEMBL3885881, “DrugMatrix”

Species on record: Rattus norvegicus
Test: DrugMatrix - Regimen: Daily Repeat
Assay type: toxicity, organism-based, Sprague-Dawley
Design: regimen Daily Repeat, gender Male, age 6-8 weeks
Conditions: in vivo, po, route oral GAVAGE, […]; for ABSOLUTE BASOPHIL / ABSOLUTE EOSINOPHIL / ABSOLUTE LYMPHOCYTE / ABSOLUTE MONOCYTE / ABSOLUTE SEGMENTED NEUTROPHIL / BASOPHIL / EOSINOPHIL / ERYTHROCYTE COUNT / HEMATOCRIT / HEMOGLOBIN / LEUKOCYTE COUNT / LYMPHOCYTE / MEAN CORPUSCULAR HEMOGLOBIN / MEAN CORPUSCULAR HEMOGLOBIN CONCENTRATION / MEAN CORPUSCULAR VOLUME / MONOCYTE / NEUTROPHIL / NUCLEATED RED BLOOD CELLS / PLATELET COUNT: tissue Blood; for ALANINE AMINOTRANSFERASE / ALBUMIN / ALKALINE PHOSPHATASE / ASPARTATE AMINOTRANSFERASE / BLOOD UREA NITROGEN / CARBON DIOXIDE / CHLORIDE / CHOLESTEROL / CREATINE PHOSPHOKINASE / CREATININE / GLUCOSE / LACTATE DEHYDROGENASE / LIPASE / PHOSPHORUS / POTASSIUM / SODIUM / TOTAL BILIRUBIN / TOTAL PROTEIN / URIC ACID: tissue Plasma
[1] = 4 mg/kg, 120 h, dose level Low, time 5 day
[2] = 63 mg/kg, 72 h, dose level High, time 3 day
[3] = 63 mg/kg, 120 h, dose level High, time 5 day

CSc1ccc2c(c1)N(CCC1CCCCN1C)c1ccccc1S2 (centres undefined) [THIORIDAZINE]
ABSOLUTE BASOPHIL [1]: 0 CELLS/uL
ABSOLUTE EOSINOPHIL [1]: 185.33 CELLS/uL
ABSOLUTE LYMPHOCYTE [1]: 12393.33 CELLS/uL
ABSOLUTE MONOCYTE [1]: 143.33 CELLS/uL
ABSOLUTE SEGMENTED NEUTROPHIL [1]: 1078 CELLS/uL
BASOPHIL [1]: 0%
EOSINOPHIL [1]: 1.33%
ERYTHROCYTE COUNT [1]: 6.21 x10E6/uL
HEMATOCRIT [1]: 39.13%
HEMOGLOBIN [1]: 14.43 G/DL
LEUKOCYTE COUNT [1]: 13.8 x10E3/uL
LYMPHOCYTE [1]: 90%
MEAN CORPUSCULAR HEMOGLOBIN [1]: 23.27 pg
MEAN CORPUSCULAR HEMOGLOBIN CONCENTRATION [1]: 36.87 G/DL
MEAN CORPUSCULAR VOLUME [1]: 63.13 fL
MONOCYTE [1]: 1%
NEUTROPHIL [1]: 7.67%
NUCLEATED RED BLOOD CELLS [1]: 0.33 /100WBC
PLATELET COUNT [1]: 1375 x10E3/uL
ALANINE AMINOTRANSFERASE [1]: 42.67 u/L
ALBUMIN [1]: 4.4 G/DL
ALKALINE PHOSPHATASE [1]: 474.67 u/L
ASPARTATE AMINOTRANSFERASE [1]: 94.67 u/L
BLOOD UREA NITROGEN [1]: 17.67 mg/dL
CARBON DIOXIDE [1]: 24.33 mmol/L
CHLORIDE [1]: 103.67 MEQ/L
CHOLESTEROL [1]: 48.67 mg/dL
CREATINE PHOSPHOKINASE [1]: 499.33 u/L
CREATININE [1]: 0.19 mg/dL
GLUCOSE [1]: 188 mg/dL
LACTATE DEHYDROGENASE [1]: 405 u/L
LIPASE [1]: 9.33 u/L
PHOSPHORUS [1]: 12.77 mg/dL
POTASSIUM [1]: 5.85 MEQ/L
SODIUM [1]: 141.6 MEQ/L
TOTAL BILIRUBIN [1]: 0.1 mg/dL
TOTAL PROTEIN [1]: 6.63 G/DL
URIC ACID [1]: 2.07 mg/dL
ABSOLUTE BASOPHIL [2]: 0 CELLS/uL
ABSOLUTE EOSINOPHIL [2]: 50 CELLS/uL
ABSOLUTE LYMPHOCYTE [2]: 8382 CELLS/uL
ABSOLUTE MONOCYTE [2]: 59.67 CELLS/uL
ABSOLUTE SEGMENTED NEUTROPHIL [2]: 575 CELLS/uL
BASOPHIL [2]: 0%
EOSINOPHIL [2]: 0.67%
ERYTHROCYTE COUNT [2]: 5.2 x10E6/uL
HEMATOCRIT [2]: 32.73%
HEMOGLOBIN [2]: 12.73 G/DL
LEUKOCYTE COUNT [2]: 9.07 x10E3/uL
LYMPHOCYTE [2]: 92.33%
MEAN CORPUSCULAR HEMOGLOBIN [2]: 24.53 pg
MEAN CORPUSCULAR HEMOGLOBIN CONCENTRATION [2]: 38.9 G/DL
MEAN CORPUSCULAR VOLUME [2]: 63.07 fL
MONOCYTE [2]: 0.67%
NEUTROPHIL [2]: 6.33%
NUCLEATED RED BLOOD CELLS [2]: 0 /100WBC
PLATELET COUNT [2]: 1257.67 x10E3/uL
ALANINE AMINOTRANSFERASE [2]: 49.33 u/L
ALBUMIN [2]: 4.2 G/DL
ALKALINE PHOSPHATASE [2]: 379.33 u/L
ASPARTATE AMINOTRANSFERASE [2]: 77.67 u/L
BLOOD UREA NITROGEN [2]: 16 mg/dL
CARBON DIOXIDE [2]: 28.67 mmol/L
CHLORIDE [2]: 104.67 MEQ/L
CHOLESTEROL [2]: 74.33 mg/dL
CREATINE PHOSPHOKINASE [2]: 301.33 u/L
CREATININE [2]: 0.2 mg/dL
GLUCOSE [2]: 164 mg/dL
LACTATE DEHYDROGENASE [2]: 99.33 u/L
LIPASE [2]: 9 u/L
PHOSPHORUS [2]: 10.9 mg/dL
POTASSIUM [2]: 5.63 MEQ/L
SODIUM [2]: 146.33 MEQ/L
TOTAL BILIRUBIN [2]: 0.17 mg/dL
TOTAL PROTEIN [2]: 6 G/DL
URIC ACID [2]: 1.13 mg/dL
ABSOLUTE BASOPHIL [3]: 0 CELLS/uL
ABSOLUTE EOSINOPHIL [3]: 0 CELLS/uL
ABSOLUTE LYMPHOCYTE [3]: 12825 CELLS/uL
ABSOLUTE MONOCYTE [3]: 117.67 CELLS/uL
ABSOLUTE SEGMENTED NEUTROPHIL [3]: 1290.67 CELLS/uL
BASOPHIL [3]: 0%
EOSINOPHIL [3]: 0%
ERYTHROCYTE COUNT [3]: 5.78 x10E6/uL
HEMATOCRIT [3]: 35.33%
HEMOGLOBIN [3]: 13.37 G/DL
LEUKOCYTE COUNT [3]: 14.23 x10E3/uL
LYMPHOCYTE [3]: 90.33%
MEAN CORPUSCULAR HEMOGLOBIN [3]: 23.13 pg
MEAN CORPUSCULAR HEMOGLOBIN CONCENTRATION [3]: 37.87 G/DL
MEAN CORPUSCULAR VOLUME [3]: 61.23 fL
MONOCYTE [3]: 1%
NEUTROPHIL [3]: 8.67%
NUCLEATED RED BLOOD CELLS [3]: 0.33 /100WBC
PLATELET COUNT [3]: 1309.67 x10E3/uL
ALANINE AMINOTRANSFERASE [3]: 52.33 u/L
ALBUMIN [3]: 4 G/DL
ALKALINE PHOSPHATASE [3]: 520 u/L
ASPARTATE AMINOTRANSFERASE [3]: 97.33 u/L
BLOOD UREA NITROGEN [3]: 13.67 mg/dL
CARBON DIOXIDE [3]: 23.33 mmol/L
CHLORIDE [3]: 106.33 MEQ/L
CHOLESTEROL [3]: 55 mg/dL
CREATINE PHOSPHOKINASE [3]: 913 u/L
CREATININE [3]: 0.19 mg/dL
GLUCOSE [3]: 175.33 mg/dL
LACTATE DEHYDROGENASE [3]: 124.33 u/L
LIPASE [3]: 8.67 u/L
PHOSPHORUS [3]: 11.6 mg/dL
POTASSIUM [3]: 5.22 MEQ/L
SODIUM [3]: 144.53 MEQ/L
TOTAL BILIRUBIN [3]: 0.17 mg/dL
TOTAL PROTEIN [3]: 5.87 G/DL
URIC ACID [3]: 1.37 mg/dL
